Results on 2 molecules are retold here after patent US6579708B1, “Human uridine kinase” (SmithKline Beecham Corporation, priority 2000, dated 2003).

As a reminder, the Km is the concentration of substrate that gives half-maximal velocity.

The subject of data set [1] is uridine kinase. The note with it: cited from earlier work.
For data set [2], the system named is uridine kinase. The note with it: cited from earlier work. The source holds these as a separate data set.
Data set [3] is described as follows: Characterization of recombinant His-tagged human uridine kinase expressed in E.coli. The data set is classed as biochemical. The text has this:
The novel human UDK gene has been cloned into an expression vector pET 16b (Novagen) with a His tag at its NH2-terminus. The gene was expressed in E.coli and has been purified to >95% purity by Ni-NTA affinity chromatography.

Where two headings read alike, the source gives them in different places.

With `O=c1ccn([C@@H]2O[C@H](CO)[C@@H](O)[C@H]2O)c(=O)[nH]1` [uridine], the Km with uridine kinase [1] (normal rat liver) was 5000 µM; in the data set with uridine kinase [1] (rapidly growing hepatoma 3924A), 800 µM; with uridine kinase [2] (normal ovary) it was 11500 µM; with uridine kinase [2] (ovarian carcinoma), 500 µM.

B1: Human Uridine Kinase: novel human UDK gene product expressed in E.coli from pET 16b, purified by Ni-NTA affinity chromatography (protein)
chain: MASAGGEDCESPAPEADRPHQRPFLIGVSGGTASGKSTVCEKIMELLGQNEVEQRQRKVVILSQDRFYKVLTAEQKAKALKGQYNFDHPDAFDNDLMHRTLKNIVEGKTVEVPTYDFVTHSRLPETTVVYPADVVLFEGILVFYSQEIRDMFHLRLFVDTDSDVRLSRRVLRDVRRGRDLEQILTQYTTFVKPAFEEFCLPTKKYADVIIPRGVDNMVAINLIVQHIQDILNGDICKWHRGGSNGRSYKRTFSEPGDHPG
modifications: His tag from pET16b; Human
Regarding B1, the “Optimum pH” value in data set [3] was 9.0. For the same molecule, in data set [3] (purified enzyme, His tag at NH2-terminus), the “Specific Activity” value came to 678 nmol/min/mg protein. In addition, the enzymatic activity entry in data set [3] (with the His tag) is “good enzymatic activity”.
